We go through eleven compounds from ChEMBL document CHEMBL4261497, “Nucleotide pyrophosphatase/phosphodiesterase 1 (NPP1) and its inhibitors” (Medchemcomm, 2017).

In general, Ki refers to the equilibrium dissociation constant of an inhibitor or competing ligand from its target. In general, IC50 refers to the concentration that inhibits the measured activity by half.

Experiment [1] has as its target T1, Ectonucleotide pyrophosphatase/phosphodiesterase family member 1 (Rattus norvegicus, UniProt Q924C3).
T1 sequence (Q924C3 whole entry): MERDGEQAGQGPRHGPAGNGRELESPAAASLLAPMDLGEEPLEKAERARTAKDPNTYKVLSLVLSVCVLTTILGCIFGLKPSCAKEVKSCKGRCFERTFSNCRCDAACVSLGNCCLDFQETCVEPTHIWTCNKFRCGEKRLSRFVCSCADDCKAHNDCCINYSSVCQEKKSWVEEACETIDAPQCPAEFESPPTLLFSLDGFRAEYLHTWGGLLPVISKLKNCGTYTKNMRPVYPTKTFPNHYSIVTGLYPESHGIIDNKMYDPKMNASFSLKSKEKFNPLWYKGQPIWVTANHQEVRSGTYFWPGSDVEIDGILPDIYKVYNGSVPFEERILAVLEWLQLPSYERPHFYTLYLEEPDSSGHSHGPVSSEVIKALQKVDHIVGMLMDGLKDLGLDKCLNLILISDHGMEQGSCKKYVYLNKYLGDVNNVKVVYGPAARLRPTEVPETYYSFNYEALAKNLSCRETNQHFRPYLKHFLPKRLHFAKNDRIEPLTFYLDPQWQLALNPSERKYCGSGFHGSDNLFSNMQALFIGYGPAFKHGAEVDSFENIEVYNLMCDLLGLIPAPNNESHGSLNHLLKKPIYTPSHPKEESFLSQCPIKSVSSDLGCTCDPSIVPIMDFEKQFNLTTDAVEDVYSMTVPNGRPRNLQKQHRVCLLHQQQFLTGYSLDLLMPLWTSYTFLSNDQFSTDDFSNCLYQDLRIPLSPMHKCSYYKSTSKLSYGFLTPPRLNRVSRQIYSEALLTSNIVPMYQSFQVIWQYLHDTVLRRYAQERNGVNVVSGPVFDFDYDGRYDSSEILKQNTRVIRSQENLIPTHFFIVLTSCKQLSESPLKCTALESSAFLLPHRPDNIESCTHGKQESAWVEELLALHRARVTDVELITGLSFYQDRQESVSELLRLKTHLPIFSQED
Briefly: Competitive-inhibition of Wistar rat NPP1 using p-Nph-5'-TMP as substrate measured after 5 mins by UPLC method.

The target in experiment [2] is T2, Ectonucleotide pyrophosphatase/phosphodiesterase family member 1 (Homo sapiens, UniProt P22413).
T2 sequence (P22413 whole entry): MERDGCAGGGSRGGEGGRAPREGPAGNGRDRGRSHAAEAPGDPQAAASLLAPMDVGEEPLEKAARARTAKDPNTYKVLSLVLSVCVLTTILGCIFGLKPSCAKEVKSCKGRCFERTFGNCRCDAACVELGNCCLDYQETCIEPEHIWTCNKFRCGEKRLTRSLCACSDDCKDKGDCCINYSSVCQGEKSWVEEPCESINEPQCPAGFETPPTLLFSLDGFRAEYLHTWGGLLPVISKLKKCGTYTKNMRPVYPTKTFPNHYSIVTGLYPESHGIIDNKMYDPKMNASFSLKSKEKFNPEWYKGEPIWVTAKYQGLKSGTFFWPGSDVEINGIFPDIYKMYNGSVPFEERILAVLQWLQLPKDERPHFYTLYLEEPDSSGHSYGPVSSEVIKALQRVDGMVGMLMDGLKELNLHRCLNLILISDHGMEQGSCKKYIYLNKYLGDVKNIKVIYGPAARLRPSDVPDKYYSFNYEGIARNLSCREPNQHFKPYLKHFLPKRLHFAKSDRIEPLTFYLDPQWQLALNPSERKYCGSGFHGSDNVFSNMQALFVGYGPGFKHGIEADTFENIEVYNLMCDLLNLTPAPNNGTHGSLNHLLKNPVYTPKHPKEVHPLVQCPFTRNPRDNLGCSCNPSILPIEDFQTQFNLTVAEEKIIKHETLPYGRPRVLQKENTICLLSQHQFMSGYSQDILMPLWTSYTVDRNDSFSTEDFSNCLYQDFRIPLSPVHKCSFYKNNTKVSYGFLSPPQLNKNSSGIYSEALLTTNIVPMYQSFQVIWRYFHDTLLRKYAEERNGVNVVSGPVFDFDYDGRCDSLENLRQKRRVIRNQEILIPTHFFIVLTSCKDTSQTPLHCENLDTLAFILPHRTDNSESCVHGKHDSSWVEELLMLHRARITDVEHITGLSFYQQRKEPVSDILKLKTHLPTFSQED
Put plainly: Competitive-inhibition of recombinant human N-terminal His-tagged soluble NPP1 (Val191 to Leu591 residues) expressed in mouse NSO cells using ATP as substrate after 30 mins by capillary electrophoresis method.

In experiment [3] the target is T2, Ectonucleotide pyrophosphatase/phosphodiesterase family member 1. Briefly: Competitive-inhibition of recombinant human NPP1 expressed in HEK293 cell membranes using p-Nph-5'-TMP as substrate pretreated for 10 mins followed by substrate addition and measured after 60 mins by capillary electrophoresis method.
The target is the same in experiment [4]. Briefly: Noncompetitive-inhibition of recombinant human NPP1 expressed in HEK293 cell membranes using p-Nph-5'-TMP as substrate pretreated for 10 mins followed by substrate addition and measured after 60 mins by capillary electrophoresis method.
The target is the same in experiment [5]. Put plainly: Uncompetitive-inhibition of recombinant human N-terminal His-tagged soluble NPP1 (Val191 to Leu591 residues) expressed in mouse NSO cells using ATP as substrate by capillary electrophoresis method.
The target is the same in experiment [6]. Put plainly: Uncompetitive-inhibition of recombinant human N-terminal His-tagged soluble NPP1 (Val191 to Leu591 residues) expressed in mouse NSO cells using p-Nph-5'-TMP as substrate after 15 mins by capillary electrophoresis method.
Experiment [7] has the same target. Briefly: Uncompetitive-inhibition of recombinant human N-terminal His-tagged soluble NPP1 (Val191 to Leu591 residues) expressed in mouse NSO cells using p-Nph-5'-AMP as substrate after 30 mins by capillary electrophoresis method.
The target is the same in experiment [8]. Briefly: Uncompetitive-inhibition of recombinant human N-terminal His-tagged soluble NPP1 (Val191 to Leu591 residues) expressed in mouse NSO cells using ATP as substrate after 30 mins by capillary electrophoresis method.
For experiment [9] the target is unchanged. Put plainly: Inhibition of recombinant human NPP1 expressed in COS7 cell membranes using p-Nph-5'-TMP as substrate pretreated for 10 mins followed by substrate addition and measured after 30 mins.
Experiment [10] has the same target. Put plainly: Inhibition of recombinant human NPP1 expressed in COS7 cell membranes using p-Nph-5'-TMP as substrate pretreated for 10 mins followed by substrate addition and measured after 30 mins by spectrophotometric method.
Experiment [11] addresses T1, Ectonucleotide pyrophosphatase/phosphodiesterase family member 1. Briefly: Inhibition of NPP1 in Wistar rat C6 cells using [gamma-32P]ATP as substrate pretreated for 30 mins followed by substrate addition and measured after 90 mins by TLC analysis. The format is cell-based.
The target is the same in experiment [12]. Put plainly: Mixed-inhibition of Wistar rat NPP1 using p-Nph-5'-TMP as substrate measured after 5 mins by UPLC method.

In the case of `Nc1ncnc2c1ncn2[C@@H]1O[C@H](COP(=O)(O)OP(=O)(O)OP(=O)(O)O)[C@@H](OC(=O)c2ccc(C(=O)c3ccccc3)cc2)[C@H]1O`, the Ki came out at 20.5 µM in experiment [1], 14.6 µM in experiment [2] and 2.96 µM in experiment [3].

Take `CSc1nc(N)c2ncn([C@@H]3O[C@H](COP(=O)(O)OP(=O)(O)OP(=O)(O)O)[C@@H](O)[C@H]3O)c2n1`: the figures for the Ki in [1] and in [2] were 20.5 µM and 21.3 µM, respectively.

In the case of `Nc1ncnc2c1ncn2[C@@H](C=O)O[C@@H](C=O)COP(=O)(O)OP(=O)(O)O`, the Ki in [4] is 3.42 µM.

Consider `Nc1ncnc2c1ncn2[C@@H](C=O)O[C@@H](C=O)COP(=O)(O)OP(=O)(O)OP(=O)(O)O`, for which the inhibitory constant (Ki) in experiment [5] was 6.82 µM; in experiment [6], 4.09 µM; in experiment [7], 5.08 µM; in [8] it was 6.96 µM; in experiment [1], 9.8 µM.

In the case of `CCC(Oc1ccc(C)cc1)c1nnc(SCC(=O)Nc2nc3ccccc3s2)o1` (centres undefined), the IC50 in [9] was 1.9 to 5.5 µM.

For the compound `COc1cc2cc(-n3cc(C)c4ccccc43)n3c4ccccc4c(C)c3c2cc1OC`, the IC50 in experiment [10] lay in the range of 0.36 to 2.81 µM.

For `CSc1nc(N)c2ncn([C@@H]3O[C@H](COP(=O)(O)OP(=O)(O)O)[C@@H](O)[C@H]3O)c2n1`, the Ki in [2] was 23.7 µM.

For the compound `Cc1nc(/N=N/c2ccc(S(=O)(=O)O)cc2S(=O)(=O)O)c(COP(=O)(O)O)c(C=O)c1O`, the 50% inhibitory concentration (IC50) in experiment [11] turned out to be 12 µM.

Take `Nc1ncnc2c1ncn2[C@@H]1O[C@H](COP(=O)(O)CP(=O)(O)OP(=O)(O)O)[C@@H](O)[C@H]1O` [DIPHOSPHOMETHYLPHOSPHONIC ACID ADENOSYL ESTER]: the inhibitory constant (Ki) in experiment [1] was determined as 2.2 µM.

Take `Nc1ncnc2c1ncn2[C@@H]1O[C@H](COP(=O)(O)CP(=O)(O)O)[C@@H](O)[C@H]1O` [PHOSPHOMETHYLPHOSPHONIC ACID ADENOSYL ESTER]: the results for the Ki in experiment [12] and in experiment [2] were 9.6 µM and 24.3 µM, respectively.

Consider `Cc1ccc(C(=O)Nc2ccc(S(=O)(=O)O)c3cc(S(=O)(=O)O)cc(S(=O)(=O)O)c23)cc1NC(=O)c1cccc(NC(=O)Nc2cccc(C(=O)Nc3cc(C(=O)Nc4ccc(S(=O)(=O)O)c5cc(S(=O)(=O)O)cc(S(=O)(=O)O)c45)ccc3C)c2)c1` [SURAMIN], for which, in experiment [11], the IC50 amounted to 72 µM.
